Target: SARS‐CoV M^pro (Severe acute respiratory syndrome-related coronavirus, UniProt P0C6X7)
Assay: biochemical

CC1=C(C(=O)OCCc2ccccc2)C(c2ccccc2[N+](=O)[O-])C2=C(CCCC2=O)N1 (stereo not shown) [MP576, 3‐quinolinecarboxylic acid, 1,4,5,6,7,8‐hexahydro‐2‐methyl‐4‐(2‐nitrophenyl)‐5‐oxo‐, 2‐phenylethyl ester]
Ki: 2900 ± 300 nM
